Source: PubChem BioAssay (NCI)
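Following 48 hours of exposure in 96-well plates, responses at five concentrations were used to interpolate endpoints linearly. GI50 marks 50% less growth. TGI: concentration producing complete growth inhibition.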

Tests used:
Experiment in all cases: inhibition of tumour cell growth, NCI panel, 48 h
NCI/ADR-RES ovarian = system: NCI/ADR-RES ovarian
NCI-H522 lung = system: NCI-H522 lung
DU-145 prostate = system: DU-145 prostate
SN12C renal = system: SN12C renal
MALME-3M melanoma = system: MALME-3M melanoma
PC-3 prostate = system: PC-3 prostate
COLO 205 colon = system: COLO 205 colon
SK-MEL-28 melanoma = system: SK-MEL-28 melanoma
SK-MEL-2 melanoma = system: SK-MEL-2 melanoma
786-0 renal = system: 786-0 renal
BT-549 breast = system: BT-549 breast
UACC-62 melanoma = system: UACC-62 melanoma
HCC-2998 colon = system: HCC-2998 colon
UACC-257 melanoma = system: UACC-257 melanoma
LOX IMVI melanoma = system: LOX IMVI melanoma
MOLT-4 leukemia = system: MOLT-4 leukemia
A498 renal = system: A498 renal
TK-10 renal = system: TK-10 renal
IGROV1 ovarian = system: IGROV1 ovarian
SF-539 CNS = system: SF-539 CNS
UO-31 renal = system: UO-31 renal
OVCAR-8 ovarian = system: OVCAR-8 ovarian
A549 NSCLC = system: A549 NSCLC
OVCAR-3 ovarian = system: OVCAR-3 ovarian
K-562 leukemia = system: K-562 leukemia
SF-295 CNS = system: SF-295 CNS
SK-MEL-5 melanoma = system: SK-MEL-5 melanoma
SR leukemia = system: SR leukemia
SNB-75 CNS = system: SNB-75 CNS
HCT-15 colon = system: HCT-15 colon
HL-60(TB) leukemia = system: HL-60(TB) leukemia
ACHN renal = system: ACHN renal
OVCAR-5 ovarian = system: OVCAR-5 ovarian
SW-620 colon = system: SW-620 colon
CCRF-CEM leukemia = system: CCRF-CEM leukemia
OVCAR-4 ovarian = system: OVCAR-4 ovarian
U251 CNS = system: U251 CNS
HOP-62 NSCLC = system: HOP-62 NSCLC
HCT-116 colon = system: HCT-116 colon
MDA-MB-231 breast = system: MDA-MB-231 breast
T-47D breast = system: T-47D breast
NCI-H226 lung = system: NCI-H226 lung
SNB-19 CNS = system: SNB-19 CNS
NCI-H23 lung = system: NCI-H23 lung
SF-268 CNS = system: SF-268 CNS
EKVX NSCLC = system: EKVX NSCLC
MCF7 breast = system: MCF7 breast
HT29 colon = system: HT29 colon
NCI-H460 lung = system: NCI-H460 lung
KM12 colon = system: KM12 colon
SK-OV-3 ovarian = system: SK-OV-3 ovarian
M14 melanoma = system: M14 melanoma
MDA-MB-435 = system: MDA-MB-435
HOP-92 NSCLC = system: HOP-92 NSCLC
CAKI-1 renal = system: CAKI-1 renal
RXF 393 renal = system: RXF 393 renal

CC1=C([Se]CC(OC(=O)CC[Se]c2ccccc2)C(=O)NC(C)(C)C)C(=O)c2ccccc2C1=O (stereo not given)
GI50 (NCI/ADR-RES ovarian): 1.63 µM
TGI (NCI/ADR-RES ovarian): 3.18 µM
GI50 (NCI-H522 lung): 1.67 µM
TGI (NCI-H522 lung): 3.34 µM
GI50 (DU-145 prostate): 1.97 µM
TGI (DU-145 prostate): 3.6 µM
GI50 (SN12C renal): 1.67 µM
TGI (SN12C renal): 3.13 µM
GI50 (MALME-3M melanoma): 2.1 µM
TGI (MALME-3M melanoma): 4.46 µM
GI50 (PC-3 prostate): 1.48 µM
TGI (PC-3 prostate): 2.8 µM
GI50 (COLO 205 colon): 1.6 µM
TGI (COLO 205 colon): 3.13 µM
GI50 (SK-MEL-28 melanoma): 2.08 µM
TGI (SK-MEL-28 melanoma): 3.55 µM
GI50 (SK-MEL-2 melanoma): 2 µM
TGI (SK-MEL-2 melanoma): 3.7 µM
GI50 (786-0 renal): 1.83 µM
TGI (786-0 renal): 3.23 µM
GI50 (BT-549 breast): 1.64 µM
TGI (BT-549 breast): 3.15 µM
GI50 (UACC-62 melanoma): 1.48 µM
TGI (UACC-62 melanoma): 2.83 µM
GI50 (HCC-2998 colon): 1.76 µM
TGI (HCC-2998 colon): 3.2 µM
GI50 (UACC-257 melanoma): 1.57 µM
TGI (UACC-257 melanoma): 2.95 µM
GI50 (LOX IMVI melanoma): 1.94 µM
TGI (LOX IMVI melanoma): 4.7 µM
GI50 (MOLT-4 leukemia): 0.545 µM
TGI (MOLT-4 leukemia): 3.44 µM
GI50 (A498 renal): 2.82 µM
TGI (A498 renal): 6.42 µM
GI50 (TK-10 renal): 1.99 µM
TGI (TK-10 renal): 3.62 µM
GI50 (IGROV1 ovarian): 1.53 µM
TGI (IGROV1 ovarian): 2.94 µM
GI50 (SF-539 CNS): 1.75 µM
TGI (SF-539 CNS): 3.15 µM
GI50 (UO-31 renal): 1.17 µM
TGI (UO-31 renal): 2.43 µM
GI50 (OVCAR-8 ovarian): 1.77 µM
TGI (OVCAR-8 ovarian): 3.27 µM
GI50 (A549 NSCLC): 1.63 µM
TGI (A549 NSCLC): 3.61 µM
GI50 (OVCAR-3 ovarian): 1.61 µM
TGI (OVCAR-3 ovarian): 3.11 µM
GI50 (K-562 leukemia): 0.729 µM
TGI (K-562 leukemia): 3.08 µM
GI50 (SF-295 CNS): 0.316 µM
TGI (SF-295 CNS): 1.37 µM
GI50 (SK-MEL-5 melanoma): 1.82 µM
TGI (SK-MEL-5 melanoma): 3.27 µM
GI50 (SR leukemia): 0.938 µM
TGI (SR leukemia): 3.37 µM
GI50 (SNB-75 CNS): 1.47 µM
TGI (SNB-75 CNS): 2.82 µM
GI50 (HCT-15 colon): 2.47 µM
TGI (HCT-15 colon): 5.86 µM
GI50 (HL-60(TB) leukemia): 1.07 µM
TGI (HL-60(TB) leukemia): 2.92 µM
GI50 (ACHN renal): 1.86 µM
TGI (ACHN renal): 3.69 µM
GI50 (OVCAR-5 ovarian): 1.75 µM
TGI (OVCAR-5 ovarian): 3.18 µM
GI50 (SW-620 colon): 1.91 µM
TGI (SW-620 colon): 3.88 µM
GI50 (CCRF-CEM leukemia): 0.628 µM
TGI (CCRF-CEM leukemia): 4.1 µM
GI50 (OVCAR-4 ovarian): 1.61 µM
TGI (OVCAR-4 ovarian): 3 µM
GI50 (U251 CNS): 1.14 µM
TGI (U251 CNS): 3.77 µM
GI50 (HOP-62 NSCLC): 0.357 µM
TGI (HOP-62 NSCLC): 1.7 µM
GI50 (HCT-116 colon): 1.47 µM
TGI (HCT-116 colon): 2.86 µM
GI50 (MDA-MB-231 breast): 1.55 µM
TGI (MDA-MB-231 breast): 3.01 µM
GI50 (T-47D breast): 1.68 µM
TGI (T-47D breast): 3.88 µM
GI50 (NCI-H226 lung): 2 µM
TGI (NCI-H226 lung): 4.56 µM
GI50 (SNB-19 CNS): 0.638 µM
TGI (SNB-19 CNS): 2.05 µM
GI50 (NCI-H23 lung): 1.56 µM
TGI (NCI-H23 lung): 3.11 µM
GI50 (SF-268 CNS): 1.76 µM
TGI (SF-268 CNS): 3.29 µM
GI50 (EKVX NSCLC): 1.73 µM
TGI (EKVX NSCLC): 3.8 µM
GI50 (MCF7 breast): 1.69 µM
TGI (MCF7 breast): 3.73 µM
GI50 (HT29 colon): 1.96 µM
TGI (HT29 colon): 3.64 µM
GI50 (NCI-H460 lung): 0.426 µM
TGI (NCI-H460 lung): 2.02 µM
GI50 (KM12 colon): 1.59 µM
TGI (KM12 colon): 3.2 µM
GI50 (SK-OV-3 ovarian): 1.45 µM
TGI (SK-OV-3 ovarian): 2.81 µM
GI50 (M14 melanoma): 1.67 µM
TGI (M14 melanoma): 3.21 µM
GI50 (MDA-MB-435): 2.21 µM
TGI (MDA-MB-435): 4.7 µM
GI50 (HOP-92 NSCLC): 1.55 µM
TGI (HOP-92 NSCLC): 2.92 µM
GI50 (CAKI-1 renal): 2.37 µM
TGI (CAKI-1 renal): 4.58 µM

CC(C)c1ccc(Cn2ccc3c4c(N)nc(NC5CC5)nc4ccc32)cc1
GI50 (DU-145 prostate): 0.399 µM
TGI (DU-145 prostate): 1.38 µM
GI50 (TK-10 renal): 1.23 µM
TGI (TK-10 renal): 2.57 µM
GI50 (SW-620 colon): 0.326 µM
TGI (SW-620 colon): 1.32 µM
GI50 (RXF 393 renal): 0.172 µM
TGI (RXF 393 renal): 0.58 µM
GI50 (NCI-H460 lung): 0.198 µM
TGI (NCI-H460 lung): 1.07 µM
